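Step 1: Grow cells in 96-well plates. Step 2: Expose to compound for 48 hours at 5 concentrations. Step 3: Interpolate endpoints linearly; if unreached, use highest concentration. Definition used: TGI = concentration required for complete inhibition of growth.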 Some results are limits rather than exact numbers.

Assay in all cases: NCI-60 cell line screen, 48 h
For test [1], the system named is 786-0 renal.
Test [2] relates to LOX IMVI melanoma.
The subject of test [3] is MALME-3M melanoma.
The subject of test [4] is RXF 393 renal.
Test [5] relates to SK-MEL-28 melanoma.
Test [6] deals with SK-MEL-5 melanoma.
Test [7] deals with SN12C renal.
The subject of test [8] is SW-620 colon.
Test [9] concerns UACC-257 melanoma.

For `Nc1c(-c2cccc3ccccc23)c2ccc([N+](=O)[O-])cc2c(=O)n1-c1nc2ccccc2s1`, the TGI in test [1] is above 36.2 µM; in [2] it was above 35.5 µM; in test [3] it was 13.4 µM; in test [4], above 31.3 µM; in test [5], above 100 µM; in [6], 37.7 µM. Further, the TGI was above 100 µM in test [7], above 100 µM in test [8] and above 80.8 µM in [9].
For `Cc1c(S(=O)(=O)/N=C(\N)Nc2ccc(Cl)cc2)sc2ccc(Cl)cc12`, the TGI in test [1] is 33.7 µM; in test [2], 36.3 µM; in test [3], 39.8 µM; in [4], above 100 µM; in test [5] it was 48.5 µM; in test [6], above 100 µM. For the same molecule, the TGI stood at 31.2 µM in test [7], 58.1 µM in test [8] and 40.4 µM in test [9].
In the case of `O=C1CN2C(c3ccccc3)=NN(c3ccc([N+](=O)[O-])cc3)C2(c2ccccc2)c2cc(Cl)ccc2N1CC1CC1` (stereo unspecified), the TGI in test [1], in [2], in [3], in [4], in test [5] and in test [6] was above 100 µM in each case. The TGI in test [7], in test [8] and in test [9] was above 100 µM in each case.
Consider `CCN(CC)CCOc1ccc(N2C(=O)c3cc(OC)c(OC)cc3C2=O)cc1`, for which the TGI in test [1], in test [2], in test [3], in test [4], in test [5] and in test [6] was above 100 µM in each case. For the same molecule, the TGI in [7], in [8] and in test [9] was above 100 µM throughout.
In the case of `CC1CC[C@@]2(OC1)OC1C[C@H]3[C@@H]4CC[C@H]5CC(OC6OC(CO)C(OC7OC(CO)C(O)C(O)C7OC7OC(CO)C(O)C(O)C7O)C(O)C6O)CCC5(C)[C@H]4CCC3(C)C1[C@@H]2C` (stereo partly specified), the TGI in test [1] amounted to 5.44 µM; in [2], 5.85 µM; in test [3], 12.5 µM; in [4], 2.76 µM; in [5] it was 8.32 µM; in test [6], 13.5 µM. Moreover, the TGI worked out at 7.42 µM in test [7], 1.94 µM in test [8] and 11.6 µM in test [9].
On to `CCOc1cc(C2CC(c3ccc(NS(=O)(=O)c4cc([N+](=O)[O-])ccc4C)cc3)=NN2C(=O)c2ccccc2)ccc1O` (stereo unspecified), for which the TGI in test [1] was 46.7 µM; in test [2] it was above 100 µM; in test [3], 61.4 µM; in test [4], 42.6 µM; in test [5], above 100 µM; in test [6], 37.8 µM. In addition, the TGI is 58.9 µM in [7], above 100 µM in [8] and 91.5 µM in [9].
Turning to `COc1cc(C2CC(C)(Nc3ccccc3)Oc3cc4c(cc32)OCO4)cc(OC)c1OC` (stereo unspecified), the TGI in test [1] is above 78.4 µM; in test [2], above 100 µM; in [3], above 100 µM; in [4] it was above 100 µM; in [5] it was above 100 µM; in test [6] it was 8.01 µM. Also, the TGI in test [7] is above 100 µM; in test [8] it was above 100 µM; in test [9], above 85.2 µM.
As to `c1ccc2sc(SCSc3nc4ccccc4s3)nc2c1`, the TGI in test [1], in test [2], in test [3], in test [4], in test [5] and in test [6] was above 100 µM in each case. Also, the TGI in [7], in test [8] and in [9] was above 100 µM throughout.
For `CS(=O)(=O)OCCn1c(=O)n(CCOS(C)(=O)=O)c(=O)n(CCOS(C)(=O)=O)c1=O`, the TGI in [1], in test [2], in test [3], in test [4], in test [5] and in test [6] was above 100 µM each time. Besides, the TGI in test [7], in test [8] and in [9] was above 100 µM each time.
Regarding `CN(C)CCCN1C(=S)N(CCCN(C)C)c2c3cc(O)ccc3nc3c([N+](=O)[O-])ccc1c23`, the TGI in test [1] stood at 8.55 µM; in test [2], 5.9 µM; in test [3] it was 22.2 µM; in test [4], 15.1 µM; in test [5] it was 10.8 µM; in test [6], 12.1 µM. Besides, the values for the TGI in test [7], in [8] and in test [9] were 36.1 µM, above 42 µM and 21.2 µM, respectively.
With `NNC(=O)c1ccc[n+](CCc2ccccc2)c1`, the TGI in test [1], in [2], in test [3], in [4], in test [5] and in test [6] was above 100 µM each time. In addition, the TGI in test [7], in test [8] and in test [9] was above 100 µM each time.
In the case of `COc1ccc(CC(O)CN2CCOCC2)cc1` (stereo unspecified), the TGI in test [1], in test [2], in test [3], in test [4], in test [5] and in test [6] was above 100 µM throughout. For the same molecule, the TGI in test [7], in test [8] and in [9] was above 100 µM each time.
Take `O=C(CCCN1CCC2(CC1)CC(=O)N(N1CCOCC1)C2=O)c1ccccc1`: the TGI in test [1], in test [2], in test [3], in [4], in test [5] and in test [6] was above 100 µM each time. Further, the TGI in [7], in [8] and in test [9] was above 100 µM each time.
As for `CN(C)c1nc(=NCc2ccccc2)ss1`, the TGI in [1], in test [2], in test [3], in test [4], in test [5] and in test [6] was above 10 µM throughout. Moreover, the TGI in test [7], in test [8] and in [9] was above 10 µM in each case.

For the origin of these results see PubChem BioAssay (NCI).
